Results published in patent US7977364B2, “Indazoles, benzisoxazoles and benzisothiazoles and their use as estrogenic agents” (Laboratoire Thermamex, priority 2004, dated 2011).

Assays:
[1] = target: purified full-length recombinant human ERβ (Homo sapiens, UniProt Q92731); assay: Estrogen receptor β competitive radiometric binding assay ([3H]-E2)
Description: (§1) Relative binding affinities (RBA) were determined by competitive radiometric binding assays, using purified full-length recombinant human ERα and ERβ (PanVera, Madison, Wis.). […] After shaking for a few seconds and centrifugation at 1500 g and 4° C. for 10 minutes, 150 μl/well of Optiphase ‘Super Mix’ scintillation liquid was mixed with 50 μl of supernatant of each sample and the radioactivity was measured in a MicroBeta counter (Wallac, Turku, Finland). Data were evaluated by a sigmoidal dose-response curve (Prism, GraphPad Software Inc.) to estimate the concentration of competitor at half-maximal specific binding (IC50). […] The selectivity for ERα and ERβ was obtained from the ratio R of the IC50 for ERα to the IC50 for ERβ for each test compound.

ovariectomized rats [2] = settings: rat, in vivo
ovariectomized rats [3] = assay: Hot flush model in vivo: tail skin temperature, uteri and body weight
[4] = target: T1, purified full-length recombinant human ERα (Homo sapiens, UniProt P03372); assay: Estrogen receptor α competitive radiometric binding assay ([3H]-E2)
T1 sequence (P03372 1-595): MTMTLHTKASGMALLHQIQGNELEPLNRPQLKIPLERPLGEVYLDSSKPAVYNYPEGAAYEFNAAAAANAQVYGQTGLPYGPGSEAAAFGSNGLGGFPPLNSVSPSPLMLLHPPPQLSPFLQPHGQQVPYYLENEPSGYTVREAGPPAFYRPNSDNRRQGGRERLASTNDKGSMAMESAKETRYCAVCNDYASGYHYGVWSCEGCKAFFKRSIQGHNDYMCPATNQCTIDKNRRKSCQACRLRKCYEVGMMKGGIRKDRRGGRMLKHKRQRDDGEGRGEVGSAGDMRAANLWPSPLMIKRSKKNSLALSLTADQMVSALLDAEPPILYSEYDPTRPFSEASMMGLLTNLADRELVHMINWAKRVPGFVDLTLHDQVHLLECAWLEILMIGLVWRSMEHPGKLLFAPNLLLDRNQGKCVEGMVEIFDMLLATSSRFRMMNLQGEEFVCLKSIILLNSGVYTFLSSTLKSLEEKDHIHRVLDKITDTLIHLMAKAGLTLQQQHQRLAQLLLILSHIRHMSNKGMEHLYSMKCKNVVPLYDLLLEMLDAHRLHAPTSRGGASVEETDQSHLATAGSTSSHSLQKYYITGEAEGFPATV
Description: as §1

[5] = system: human breast cancer cell line MCF-7; assay: Proliferative activity in vitro (ATP luminescence, 6 days); assay type: cell-based; settings: Homo sapiens, MCF7, 144 h
Outline: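 Proliferative (estrogen-like) response of MCF-7 cells held in phenol red-free DMEM with 5% charcoal-stripped serum, seeded at 4.10^3 cells/well. Compounds in estrogen-free DMEM for six days at 37 °C. Viable cells by ATP luciferase luminescence as % of control; EC50 from sigmoidal dose-response curves.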

[6] = system: human endometrial adenocarcinoma Ishikawa cells; assay: Estrogenic and anti-estrogenic activities in vitro: induction of alkaline phosphatase (APase) activity; assay type: cell-based
Outline: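 Ishikawa cells in phenol red-free DMEM with 5% charcoal-stripped dFCS; after incubation, APase measured via 5 mM p-nitrophenyl phosphate hydrolysis at pH 9.8, read at 405 nm after 15-60 min at room temperature. EC50 (estrogenic) and IC50 (anti-estrogenic) from sigmoidal dose-response curves.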

[7] = ratio of IC50s of E2 and competitor, E2 set at 100%

Sequence of purified full-length recombinant human ERβ (Q92731 whole entry): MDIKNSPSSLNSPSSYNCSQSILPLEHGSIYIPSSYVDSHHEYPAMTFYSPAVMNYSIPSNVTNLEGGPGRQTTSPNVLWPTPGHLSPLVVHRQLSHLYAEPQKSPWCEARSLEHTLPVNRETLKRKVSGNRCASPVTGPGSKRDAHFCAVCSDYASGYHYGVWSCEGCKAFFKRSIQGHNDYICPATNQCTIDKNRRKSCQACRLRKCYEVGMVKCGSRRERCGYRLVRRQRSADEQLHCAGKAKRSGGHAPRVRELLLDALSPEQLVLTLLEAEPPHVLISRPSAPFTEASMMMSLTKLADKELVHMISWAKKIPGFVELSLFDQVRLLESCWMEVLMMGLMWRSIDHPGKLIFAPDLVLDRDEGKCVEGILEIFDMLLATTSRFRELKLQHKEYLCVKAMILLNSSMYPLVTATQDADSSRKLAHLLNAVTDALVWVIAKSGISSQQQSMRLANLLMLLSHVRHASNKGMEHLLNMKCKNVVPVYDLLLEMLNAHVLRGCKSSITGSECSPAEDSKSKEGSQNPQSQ

With `Oc1ccc2c(C3CCCC3)n[nH]c2c1` [Ex 23, 3-cyclopentyl-1H-indazol-6-ol] the IC50 [1] was 41.8 ± 7.1 nM, the “ligand to estrogen receptor beta” value ([1]; in words) was “potent ligand” and the “selectivity for the human recombinant estrogen receptor β” value ([1]; in words) was “marked selectivity”. For the same molecule, the “RBA (%) Mean ± S.E.M, ER β” value [1, 7] was 10.4 ± 4.0%, the “R (IC50s) αβ” value ([1]; ratio of the IC50 for ERα to the IC50 for ERβ) was 31.9 and the side-effects on uteri (ovariectomized rats [2]) was “without deleterious side-effects on uteri”. The “TST Variation day 1 vs day 0” value (ovariectomized rats [3]; 0.3 mg/rat/day) was −0.8 C. °, the “TST Variation day 4 vs day 0” value (ovariectomized rats [3]; 0.3 mg/rat/day) was −2.1 C. ° and the “TST Variation day 7 vs day 0” value (ovariectomized rats [3]; 0.3 mg/rat/day) was −1.9 C. °. For the same molecule, the “tail skin temperature of ovariectomized rat” value (ovariectomized rats [3]; in words) was “decreased tail skin temperature”, the IC50 [4] was 1330 ± 268 nM and the “RBA (%) Mean ± S.E.M, ER α” value [4, 7] was 0.2 ± 0.05%. For the same molecule, the activity at 1 µM ([5]; MCF-7, 10^−6 M, six days, read-out: Effect at 10^−6 M (% of control)) was 176%, the activity at 0.01 µM ([5]; MCF-7, 10^−8 M, six days, read-out: Effect at 10^−8 M (% of control)) was 81.7% and the EC50 ([5]; MCF-7, six days, read-out: Cell proliferation EC50 (nM) ± S.E.M) was 376 ± 70.1 nM. The EC50 ([6]; Homo sapiens, Ishikawa, 96 h, compound alone, four days, ND = not detected, read-out: Estrogenic activity EC50 (nM) ± S.E.M) was 1700 ± 168 nM and the “estrogenic effect in alkaline phosphatase activity in the Ishikawa cell model” value ([6]; in words) was “weak estrogenic effect”.
